Like-named read-outs stand apart in the source and are kept apart here.
Experiments:
Experiment in all cases: Post-emergent Test III, herbicidal activity in wheat and barley
Assay type in all cases: in vivo
[1] = system: HORSS: barley, including spring and winter (Hordeum vulgare); conditions: for pest or weed control at 35 g/ha / pest or weed control at 70 g/ha: Hordeum vulgare, post-emergence, 504 h, read-out: Visual Gorowth Reduction (%) 21 days After Application HORSS; for pest or weed control at 35 g/ha / pest or weed control at 70 g/ha / GR20 HORSS: 21 days after application; for GR20 HORSS: probit analysis
Outline: (§1)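 Plants at the second to third true-leaf stage, grown in a greenhouse at about 18/17 °C with a 14 h photoperiod, were sprayed post-emergence at 187 L/ha with the high rate and ½× to 1/16× serial dilutions in an acetone/DMSO/crop-oil/surfactant carrier. Injury was rated visually at 21 d on a 0–100% scale, and GR20–GR90 were derived by probit analysis.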

[2] = system: KCHSC: kochia (Kochia scoparia); conditions: for pest or weed control at 35 g/ha / pest or weed control at 70 g/ha: Bassia scoparia, post-emergence, 504 h; for pest or weed control at 35 g/ha: 35 g ai/ha; for pest or weed control at 70 g/ha: 70 g ai/ha
Outline: as §1

[3] = system: VERPE: bird's-eye speedwell (veronica persica); conditions: 21 days after application; for pest or weed control at 35 g/ha / pest or weed control at 70 g/ha: Veronica persica, post-emergence, 504 h, read-out: Visual Gorowth Reduction (%) 21 days After Application VERPE; for pest or weed control at 35 g/ha: 35 g ai/ha; for pest or weed control at 70 g/ha: 70 g ai/ha; for GR50 VERPE / GR80 VERPE: probit analysis; for GR50 VERPE: dose for 50 percent growth reduction; for GR80 VERPE: dose for 80 percent growth reduction
Outline: as §1

[4] = system: SASKR: Russian thistle (Salsola iberica); conditions: for pest or weed control at 35 g/ha / pest or weed control at 70 g/ha: Salsola tragus, post-emergence, 504 h, read-out: Visual Gorowth Reduction (%) 21 days After Application SASKR
Outline: as §1

[5] = system: VIOSS: wild pansy (Viola tricolor), field violet (Viola arvensis); conditions: for pest or weed control at 35 g/ha / pest or weed control at 70 g/ha: Viola tricolor, post-emergence, 504 h, read-out: Visual Gorowth Reduction (%) 21 days After Application VIOSS
Outline: as §1

[6] = system: TRZSS: wheat, including spring and winter (Triticum aestivum); conditions: for pest or weed control at 35 g/ha / pest or weed control at 70 g/ha: Triticum aestivum, post-emergence, 504 h, read-out: Visual Gorowth Reduction (%) 21 days After Application TRZSS; for pest or weed control at 35 g/ha / pest or weed control at 70 g/ha / GR20 TRZSS: 21 days after application; for GR20 TRZSS: probit analysis
Outline: as §1

[7] = system: MATSS: scented mayweed (Matricaria chamomilla), pineappleweed (Matricaria matricarioides); conditions: for pest or weed control at 35 g/ha / pest or weed control at 70 g/ha: Matricaria chamomilla, post-emergence, 504 h; for pest or weed control at 35 g/ha: 35 g ai/ha; for pest or weed control at 70 g/ha: 70 g ai/ha
Outline: as §1

[8] = dose for 20 percent growth reduction (crop)
[9] = 21 days after application, read-out: Visual Gorowth Reduction (%) 21 days After Application KCHSC
[10] = probit analysis, dose for 50 percent growth reduction, 21 days after application
[11] = probit analysis, dose for 80 percent growth reduction, 21 days after application
[12] = 35 g ai/ha, 21 days after application
[13] = 70 g ai/ha, 21 days after application
[14] = 21 days after application, read-out: Visual Gorowth Reduction (%) 21 days After Application MATSS
[15] = Post-emergent Test III, 35 g ai/ha
[16] = Post-emergent Test III, 70 g ai/ha
[17] = Post-emergent Test III, dose for 20% growth reduction
[18] = Post-emergent Test III, read-out: Visual Growth Reduction (%) 21 Days After Application, KCHSC
[19] = Post-emergent Test III, 21 days after application, dose for 20% growth reduction, probit analysis
[20] = Post-emergent Test III, 21 days after application, dose for 50% growth reduction, probit analysis
[21] = Post-emergent Test III, 21 days after application, dose for 80% growth reduction, probit analysis
[22] = Post-emergent Test III, read-out: Visual Growth Reduction (%) 21 Days After Application, MATSS

With `COC(=O)c1nc(-c2ccc(Br)c(F)c2F)nc(N)c1OC` [Compound 122, methyl 6-amino-2-(4-bromo-2,3-difluorophenyl)-5-methoxypyrimidine-4-carboxylate] the pest or weed control at 35 g/ha ([1]; 35 g ai/ha) was 60 to 74%, the pest or weed control at 70 g/ha ([1]; 70 g ai/ha) was 85 to 94% and the “GR20 HORSS” value [1, 8] was 3 g ai/ha. For the same compound, the pest or weed control at 35 g/ha [2, 9] was 85 to 94%, the pest or weed control at 70 g/ha [2, 9] was 95 to 100% and the “GR50 KCHSC” value [2, 10] was 5 g ai/ha. The “GR80 KCHSC” value [2, 11] was 14 g ai/ha, the pest or weed control at 35 g/ha [3] was 95 to 100% and the pest or weed control at 70 g/ha [3] was 95 to 100%. The “GR50 VERPE” value [3] was 1 g ai/ha, the “GR80 VERPE” value [3] was 2 g ai/ha and the pest or weed control at 35 g/ha [4, 12] was 95 to 100%. The pest or weed control at 70 g/ha [4, 13] was 95 to 100%, the “GR50 SASKR” value [4, 10] was under 17.5 g ai/ha and the “GR80 SASKR” value [4, 11] was under 17.5 g ai/ha. For the same compound, the pest or weed control at 35 g/ha [5, 12] was 95 to 100%, the pest or weed control at 70 g/ha [5, 13] was 95 to 100% and the “GR50 VIOSS” value [5, 10] was 10 g ai/ha. The “GR80 VIOSS” value [5, 11] was 21 g ai/ha, the pest or weed control at 35 g/ha ([6]; 35 g ai/ha) was 75 to 84% and the pest or weed control at 70 g/ha ([6]; 70 g ai/ha) was 85 to 94%. The “GR20 TRZSS” value [6, 8] was 1 g ai/ha, the pest or weed control at 35 g/ha [7, 14] was 0 to 29% and the pest or weed control at 70 g/ha [7, 14] was 30 to 44%. For the same compound, the “GR50 MATSS” value [7, 10] was over 140 g ai/ha and the “GR80 MATSS” value [7, 11] was over 140 g ai/ha.

With `COC(=O)c1nc(-c2ccc(C(F)(F)F)c(F)c2F)c(F)c(N)c1Cl` [Compound 149] the “Visual Growth Reduction (%) 21 Days After Application, HORSS” value [1, 15] was “D (60-74)”, the “Visual Growth Reduction (%) 21 Days After Application, HORSS” value [1, 16] was “C (75-84)” and the “GR20 HORSS” value [1, 17] was 21 g ai/ha. The pest or weed control at 35 g/ha [2, 18] was 30 to 44%, the pest or weed control at 70 g/ha [2, 18] was 60 to 74% and the “GR20, KCHSC” value [2, 19] was 18 g ai/ha. The “GR50 KCHSC” value [2, 20] was 56 g ai/ha, the “GR80 KCHSC” value [2, 21] was over 140 g ai/ha and the “Visual Growth Reduction (%) 21 Days After Application, SASKR” value [4, 15] was “D (60-74)”. For the same compound, the “Visual Growth Reduction (%) 21 Days After Application, SASKR” value [4, 16] was “D (60-74)”, the “GR20, SASKR” value [4, 19] was 6 g ai/ha and the “GR50 SASKR” value [4, 20] was 24 g ai/ha. For the same compound, the “GR80 SASKR” value [4, 21] was 100 g ai/ha, the “Visual Growth Reduction (%) 21 Days After Application, VIOSS” value [5, 15] was “F (30-44)” and the “Visual Growth Reduction (%) 21 Days After Application, VIOSS” value [5, 16] was “D (60-74)”. For the same compound, the “GR20, VIOSS” value [5, 19] was 11 g ai/ha, the “GR50 VIOSS” value [5, 20] was 44 g ai/ha and the “GR80 VIOSS” value [5, 21] was over 140 g ai/ha. For the same compound, the “Visual Growth Reduction (%) 21 Days After Application, TRZSS” value [6, 15] was “E (45-59)”, the “Visual Growth Reduction (%) 21 Days After Application, TRZSS” value [6, 16] was “C (75-84)” and the “GR20 TRZSS” value [6, 17] was 20 g ai/ha. The pest or weed control at 35 g/ha [7, 22] was 45 to 59%, the pest or weed control at 70 g/ha [7, 22] was 60 to 74% and the “GR20, MATSS” value [7, 19] was 9 g ai/ha. For the same compound, the “GR50 MATSS” value [7, 20] was 38 g ai/ha and the “GR80 MATSS” value [7, 21] was over 140 g ai/ha.

`Nc1c(F)c(-c2ccc(Br)c(F)c2)nc(C(=O)O)c1Cl` [Compound 21] was tested, and the pest or weed control at 35 g/ha ([1]; 35 g ai/ha) was 85 to 94%, the pest or weed control at 70 g/ha ([1]; 70 g ai/ha) was 95 to 100% and the “GR20 HORSS” value [1, 8] was 1 g ai/ha. The pest or weed control at 35 g/ha [2, 9] was 95 to 100%, the pest or weed control at 70 g/ha [2, 9] was 95 to 100% and the “GR50 KCHSC” value [2, 10] was 1 g ai/ha. The “GR80 KCHSC” value [2, 11] was 1 g ai/ha, the pest or weed control at 35 g/ha [3] was 30 to 44% and the pest or weed control at 70 g/ha [3] was 0 to 29%. The “GR50 VERPE” value [3] was 130 g ai/ha, the “GR80 VERPE” value [3] was over 140 g ai/ha and the pest or weed control at 35 g/ha [4, 12] was 75 to 84%. For the same compound, the pest or weed control at 70 g/ha [4, 13] was 85 to 94%, the “GR50 SASKR” value [4, 10] was 1 g ai/ha and the “GR80 SASKR” value [4, 11] was 25 g ai/ha. For the same compound, the pest or weed control at 35 g/ha [5, 12] was 95 to 100%, the pest or weed control at 70 g/ha [5, 13] was 95 to 100% and the “GR50 VIOSS” value [5, 10] was 4 g ai/ha. The “GR80 VIOSS” value [5, 11] was 6 g ai/ha, the pest or weed control at 35 g/ha ([6]; 35 g ai/ha) was 75 to 84% and the pest or weed control at 70 g/ha ([6]; 70 g ai/ha) was 85 to 94%. For the same compound, the “GR20 TRZSS” value [6, 8] was 1 g ai/ha, the pest or weed control at 35 g/ha [7, 14] was 85 to 94% and the pest or weed control at 70 g/ha [7, 14] was 85 to 94%. The “GR50 MATSS” value [7, 10] was 5 g ai/ha and the “GR80 MATSS” value [7, 11] was 31 g ai/ha.

From US9113629B2, “4-amino-6-(4-substituted-phenyl)-picolinates and 6-amino-2-(4-substituted-phenyl)-pyrimidine-4-carboxylates and their use as herbicides” (DOW AGROSCIENCES LLC, priority 2013, dated 2015)
